According to patent US20250289786A1, “CHLORINATED MONOCARBONYL CURCUMIN COMPOUNDS, PREPARATION METHOD, AND APPLICATION” (Southwest Medical University, priority 2024, published 2025):

System: PC12 cells
Assay: MTT toxicity (safety evaluation) on PC12 nerve cells
Assay type: cell-based
Protocol: The toxicity of each drug to PC12 cells was determined by MTT assay. The principle of the MTT colorimetric method: there is succinate dehydrogenase in the mitochondria of living cells, which can make exogenous MTT become blue-purple crystal formazan insoluble in water, this phenomenon cannot be observed in dead cells. The blue-purple crystal formazan can be dissolved by DMSO, and the absorbance value is measured by a microplate reader at a wavelength of 490 nm, which in turn reflects the number of living cells. […] The operation method is as follows:
The cells were resuscitated with DMEM high glucose medium containing 10% fetal bovine serum and cultured in a 5% CO2 cell incubator at 37° C., when the cells grew to the logarithmic growth phase, they were inoculated into a 96-well plate and cultured for 24 hours, each well was added with 100 μL of each compound solution at the corresponding gradient concentration (60, 30, 15, 7.5, 3.75 μM), after incubation in the incubator for 24 h or 48 h, 20 μL of MTT was added to continue incubation for 4 h, the supernatant was discarded and 150 μL of DMSO was added to dissolve the blue-purple crystals, after shaking for 10 min, the cell viability was detected by a microplate reader, and classified according to the cytotoxicity standard. The relevant calculation formula is as follows: […]

Which results are given for `COc1cc(/C=C2\CNC/C(=C\c3cc(Cl)c(O)c(OC)c3)C2=O)cc(Cl)c1O` [CAK06, 3,5-bis ((E)-3-chloro-4-hydroxy-5-methoxybenzylidene) piperidin-4-one]?
cytotoxicity to PC12 cells (3.75-60 μM, 24 h and 48 h, in words): no significant cytotoxicity; Rank (cytotoxicity standard) 24 h (PC12, 3.75 μM): 0; Relative growth rate (%) 24 h (PC12, 3.75 μM): 98.50 ± 3.77%; Rank (cytotoxicity standard) 48 h (PC12, 3.75 μM): 0; Relative growth rate (%) 48 h (PC12, 3.75 μM): 100.05 ± 0.75%; Rank (cytotoxicity standard) 24 h (PC12, 7.5 μM): 0; Relative growth rate (%) 24 h (PC12, 7.5 μM): 100.42 ± 2.85%; Rank (cytotoxicity standard) 48 h (PC12, 7.5 μM): 1; Relative growth rate (%) 48 h (PC12, 7.5 μM): 92.97 ± 2.54%; Rank (cytotoxicity standard) 24 h (PC12, 15 μM): 1; Relative growth rate (%) 24 h (PC12, 15 μM): 98.55 ± 4.12%; Rank (cytotoxicity standard) 48 h (PC12, 15 μM): 1; Relative growth rate (%) 48 h (PC12, 15 μM): 88.82 ± 0.28%; Rank (cytotoxicity standard) 24 h (PC12, 30 μM): 1; Relative growth rate (%) 24 h (PC12, 30 μM): 94.56 ± 2.82%; Rank (cytotoxicity standard) 48 h (PC12, 30 μM): 1; Relative growth rate (%) 48 h (PC12, 30 μM): 93.60 ± 4.14%; Rank (cytotoxicity standard) 24 h (PC12, 60 μM): 0; Relative growth rate (%) 24 h (PC12, 60 μM): 114.78 ± 1.81%; Rank (cytotoxicity standard) 48 h (PC12, 60 μM): 0; Relative growth rate (%) 48 h (PC12, 60 μM): 109.26 ± 4.07%
